Results taken from ChEMBL document CHEMBL4265899, “Trisubstituted thiazoles as potent and selective inhibitors of Plasmodium falciparum protein kinase G (PfPKG)” (Bioorg Med Chem Lett, 2018).
pIC50: −log10 of the molar value.

How the values were obtained:
[1] = biological target: Ribosomal protein S6 kinase alpha-3 (Homo sapiens) (UniProt P51812); test: Inhibition of human RSK2 at 100 nM
[2] = biological target: Mitogen-activated protein kinase 1 (Homo sapiens) (UniProt P28482); test: Inhibition of human ERK2 at 100 nM
Chain of Mitogen-activated protein kinase 1 (Homo sapiens) (P28482 whole entry): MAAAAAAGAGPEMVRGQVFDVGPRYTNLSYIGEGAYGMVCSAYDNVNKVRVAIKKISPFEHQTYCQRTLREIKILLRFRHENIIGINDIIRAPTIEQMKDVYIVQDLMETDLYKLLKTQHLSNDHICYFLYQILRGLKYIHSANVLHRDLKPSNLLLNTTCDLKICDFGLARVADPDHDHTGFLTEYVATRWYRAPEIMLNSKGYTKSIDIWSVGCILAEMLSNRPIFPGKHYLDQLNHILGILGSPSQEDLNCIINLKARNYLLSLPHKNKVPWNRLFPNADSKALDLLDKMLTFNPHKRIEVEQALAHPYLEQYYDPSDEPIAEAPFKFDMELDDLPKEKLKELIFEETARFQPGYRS

[3] = biological target: Tyrosine-protein kinase BTK (Homo sapiens) (UniProt Q06187); test: Inhibition of human BTK at 100 nM
[4] = biological target: Tyrosine-protein kinase CSK (Homo sapiens) (UniProt P41240); test: Inhibition of human CSK at 100 nM
Chain of Tyrosine-protein kinase CSK (Homo sapiens) (P41240 2-450 limits assumed): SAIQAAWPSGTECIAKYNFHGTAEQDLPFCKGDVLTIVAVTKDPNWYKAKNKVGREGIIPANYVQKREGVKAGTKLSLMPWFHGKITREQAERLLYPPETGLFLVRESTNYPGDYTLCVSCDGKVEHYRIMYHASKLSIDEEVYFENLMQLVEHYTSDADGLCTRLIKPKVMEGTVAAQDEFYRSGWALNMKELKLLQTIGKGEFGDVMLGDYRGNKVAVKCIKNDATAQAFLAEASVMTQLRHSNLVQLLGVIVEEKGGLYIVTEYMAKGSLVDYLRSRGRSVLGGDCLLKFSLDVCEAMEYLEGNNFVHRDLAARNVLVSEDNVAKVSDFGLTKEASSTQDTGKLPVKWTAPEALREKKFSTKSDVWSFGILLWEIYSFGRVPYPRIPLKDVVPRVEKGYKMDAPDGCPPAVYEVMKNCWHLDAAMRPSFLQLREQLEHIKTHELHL

[5] = biological target: Insulin-like growth factor 1 receptor (Homo sapiens) (UniProt P08069); test: Inhibition of human IGF1R at 100 nM
[6] = biological target: Casein kinase 2 (Homo sapiens) (UniProt P67870+P68400+P19784+Q8NEV1); test: Inhibition of human CK2 at 100 nM; assay type: protein assay
[7] = biological target: Serine/threonine-protein kinase Chk1 (Homo sapiens) (UniProt O14757); test: Inhibition of human CHK1 at 100 nM
Chain of Serine/threonine-protein kinase Chk1 (Homo sapiens) (O14757 whole entry): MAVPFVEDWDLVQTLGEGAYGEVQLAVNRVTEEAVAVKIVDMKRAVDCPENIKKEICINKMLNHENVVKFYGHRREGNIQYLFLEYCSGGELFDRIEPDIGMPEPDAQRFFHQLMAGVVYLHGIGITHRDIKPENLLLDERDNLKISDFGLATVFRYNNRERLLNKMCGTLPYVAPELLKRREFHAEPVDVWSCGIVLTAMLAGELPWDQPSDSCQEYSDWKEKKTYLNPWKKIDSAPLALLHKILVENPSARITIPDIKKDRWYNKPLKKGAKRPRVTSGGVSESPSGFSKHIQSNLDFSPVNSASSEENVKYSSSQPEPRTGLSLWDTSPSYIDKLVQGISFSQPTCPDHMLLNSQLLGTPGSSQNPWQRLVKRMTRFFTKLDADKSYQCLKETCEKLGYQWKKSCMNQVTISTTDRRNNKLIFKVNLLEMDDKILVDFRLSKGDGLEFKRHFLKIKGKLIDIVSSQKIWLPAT

[8] = biological target: Myosin light chain kinase, smooth muscle (Homo sapiens) (UniProt Q15746); test: Inhibition of human SmMLCK at 100 nM
[9] = biological target: Ribosomal protein S6 kinase beta-1 (Homo sapiens) (UniProt P23443); test: Inhibition of human S6K1 at 100 nM
[10] = biological target: Mitogen-activated protein kinase kinase kinase kinase 2 (Homo sapiens) (UniProt Q12851); test: Inhibition of human GCK at 100 nM
[11] = biological target: MAP kinase-interacting serine/threonine-protein kinase 1 (Homo sapiens) (UniProt Q9BUB5); test: Inhibition of human MNK1 at 100 nM
[12] = Metabolic stability in human liver microsomes assessed as compound remaining after 40 mins; assay type: ADME, microsome; settings: read-out: Stability
[13] = biological target: Ribosomal protein S6 kinase alpha-1 (Homo sapiens) (UniProt Q15418); test: Inhibition of human RSK1 at 100 nM
Chain of Ribosomal protein S6 kinase alpha-1 (Homo sapiens) (Q15418 whole entry): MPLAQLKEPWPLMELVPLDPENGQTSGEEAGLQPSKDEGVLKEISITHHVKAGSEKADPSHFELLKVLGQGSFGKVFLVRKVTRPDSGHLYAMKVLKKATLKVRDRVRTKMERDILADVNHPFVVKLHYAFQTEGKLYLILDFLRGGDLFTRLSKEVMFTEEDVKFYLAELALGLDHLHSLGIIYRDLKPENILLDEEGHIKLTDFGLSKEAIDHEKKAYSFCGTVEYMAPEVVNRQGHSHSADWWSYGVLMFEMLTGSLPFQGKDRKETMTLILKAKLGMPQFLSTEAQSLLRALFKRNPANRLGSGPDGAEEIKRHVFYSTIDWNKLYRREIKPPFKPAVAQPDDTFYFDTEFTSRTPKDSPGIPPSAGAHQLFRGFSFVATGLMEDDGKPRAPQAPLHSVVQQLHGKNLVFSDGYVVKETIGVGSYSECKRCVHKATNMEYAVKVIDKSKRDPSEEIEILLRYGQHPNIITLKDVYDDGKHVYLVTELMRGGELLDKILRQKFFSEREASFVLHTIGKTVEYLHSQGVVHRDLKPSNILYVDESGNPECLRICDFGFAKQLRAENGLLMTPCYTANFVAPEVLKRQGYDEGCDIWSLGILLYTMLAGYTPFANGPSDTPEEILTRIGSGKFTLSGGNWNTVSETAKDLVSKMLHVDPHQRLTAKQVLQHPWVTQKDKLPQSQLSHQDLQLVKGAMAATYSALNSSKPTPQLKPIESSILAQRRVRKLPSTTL

[14] = biological target: RAC-alpha serine/threonine-protein kinase (Homo sapiens) (UniProt P31749); test: Inhibition of human PKBalpha at 100 nM
[15] = biological target: Serine/threonine-protein kinase Nek2 (Homo sapiens) (UniProt P51955); test: Inhibition of human NEK2a at 100 nM
Chain of Serine/threonine-protein kinase Nek2 (Homo sapiens) (P51955 whole entry): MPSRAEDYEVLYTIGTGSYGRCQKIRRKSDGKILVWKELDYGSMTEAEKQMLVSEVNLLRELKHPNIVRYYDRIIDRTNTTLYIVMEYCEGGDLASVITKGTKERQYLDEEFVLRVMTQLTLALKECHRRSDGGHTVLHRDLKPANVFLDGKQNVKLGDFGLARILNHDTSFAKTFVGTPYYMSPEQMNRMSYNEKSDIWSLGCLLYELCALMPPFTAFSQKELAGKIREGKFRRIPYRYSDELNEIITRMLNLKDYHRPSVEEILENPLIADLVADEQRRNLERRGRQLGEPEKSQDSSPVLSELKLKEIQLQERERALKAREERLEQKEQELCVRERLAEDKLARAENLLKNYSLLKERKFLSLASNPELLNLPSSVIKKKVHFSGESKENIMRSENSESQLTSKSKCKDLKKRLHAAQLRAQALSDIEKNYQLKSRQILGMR

[16] = biological target: Serine/threonine-protein kinase Sgk1 (Homo sapiens) (UniProt O00141); test: Inhibition of human SGK1 at 100 nM
[17] = biological target: cGMP-dependent protein kinase (Plasmodium falciparum, UniProt W7JX98); test: Inhibition of Plasmodium falciparum protein kinase G
[18] = biological target: Serine/threonine-protein kinase TBK1 (Homo sapiens) (UniProt Q9UHD2); test: Inhibition of human TBK1 at 100 nM
Chain of Serine/threonine-protein kinase TBK1 (Homo sapiens) (Q9UHD2 whole entry): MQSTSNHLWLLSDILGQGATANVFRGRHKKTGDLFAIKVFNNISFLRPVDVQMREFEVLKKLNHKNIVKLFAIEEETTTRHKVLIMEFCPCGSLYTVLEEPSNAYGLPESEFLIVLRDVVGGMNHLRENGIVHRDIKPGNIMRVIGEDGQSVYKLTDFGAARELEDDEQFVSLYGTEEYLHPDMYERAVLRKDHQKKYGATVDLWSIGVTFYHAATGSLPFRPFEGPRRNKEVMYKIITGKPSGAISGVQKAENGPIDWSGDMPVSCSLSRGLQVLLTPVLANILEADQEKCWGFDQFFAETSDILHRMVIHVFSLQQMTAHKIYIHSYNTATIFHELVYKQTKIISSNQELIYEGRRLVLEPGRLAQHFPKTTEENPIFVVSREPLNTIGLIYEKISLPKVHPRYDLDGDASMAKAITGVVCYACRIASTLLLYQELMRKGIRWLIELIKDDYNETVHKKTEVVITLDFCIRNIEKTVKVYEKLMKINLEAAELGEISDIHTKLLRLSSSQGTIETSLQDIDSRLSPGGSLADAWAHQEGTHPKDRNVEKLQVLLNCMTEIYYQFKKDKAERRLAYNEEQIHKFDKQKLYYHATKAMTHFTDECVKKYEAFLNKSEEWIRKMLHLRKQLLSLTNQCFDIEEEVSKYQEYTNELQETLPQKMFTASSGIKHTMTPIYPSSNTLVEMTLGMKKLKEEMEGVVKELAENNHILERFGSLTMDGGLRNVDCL

[19] = biological target: Mitogen-activated protein kinase 14 (Homo sapiens) (UniProt Q16539); test: Inhibition of human p38a MAPK at 100 nM
Chain of Mitogen-activated protein kinase 14 (Homo sapiens) (Q16539 whole entry): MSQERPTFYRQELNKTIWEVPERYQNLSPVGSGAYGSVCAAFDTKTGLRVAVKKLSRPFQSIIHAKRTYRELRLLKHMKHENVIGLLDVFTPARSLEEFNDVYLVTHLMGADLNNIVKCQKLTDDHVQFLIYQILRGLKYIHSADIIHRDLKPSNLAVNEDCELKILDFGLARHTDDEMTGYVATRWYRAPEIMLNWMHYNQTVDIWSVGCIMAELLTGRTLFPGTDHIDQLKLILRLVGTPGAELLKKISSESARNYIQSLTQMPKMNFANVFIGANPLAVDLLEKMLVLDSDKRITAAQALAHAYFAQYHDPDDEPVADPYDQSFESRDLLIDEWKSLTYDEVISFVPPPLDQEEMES

[20] = biological target: Serine/threonine-protein kinase 3 (Homo sapiens) (UniProt Q13188); test: Inhibition of human MST2 at 100 nM
[21] = biological target: Ribosomal protein S6 kinase alpha-5 (Homo sapiens) (UniProt O75582); test: Inhibition of human MSK1 at 100 nM
Chain of Ribosomal protein S6 kinase alpha-5 (Homo sapiens) (O75582 whole entry, looked up): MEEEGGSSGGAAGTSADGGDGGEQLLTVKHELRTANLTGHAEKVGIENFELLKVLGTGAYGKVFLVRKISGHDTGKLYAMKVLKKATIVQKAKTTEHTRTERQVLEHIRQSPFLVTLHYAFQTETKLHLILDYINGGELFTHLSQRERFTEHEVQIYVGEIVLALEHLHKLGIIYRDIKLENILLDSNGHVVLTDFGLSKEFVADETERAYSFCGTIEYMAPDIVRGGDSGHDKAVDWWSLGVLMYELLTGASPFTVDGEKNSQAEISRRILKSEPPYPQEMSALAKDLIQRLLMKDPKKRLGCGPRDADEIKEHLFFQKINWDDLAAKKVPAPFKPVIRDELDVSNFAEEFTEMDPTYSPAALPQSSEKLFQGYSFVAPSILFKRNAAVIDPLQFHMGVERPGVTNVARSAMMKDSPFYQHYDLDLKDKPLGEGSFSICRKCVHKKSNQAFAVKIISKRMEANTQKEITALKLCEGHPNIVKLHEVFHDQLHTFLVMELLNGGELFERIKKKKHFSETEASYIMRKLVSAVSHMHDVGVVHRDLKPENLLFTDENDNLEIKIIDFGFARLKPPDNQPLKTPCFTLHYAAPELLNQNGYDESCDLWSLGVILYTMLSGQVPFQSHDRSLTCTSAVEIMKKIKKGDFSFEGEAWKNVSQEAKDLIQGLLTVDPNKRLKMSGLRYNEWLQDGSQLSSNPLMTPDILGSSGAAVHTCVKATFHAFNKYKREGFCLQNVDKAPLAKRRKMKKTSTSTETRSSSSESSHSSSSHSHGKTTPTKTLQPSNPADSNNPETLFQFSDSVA

[22] = biological target: Interleukin-1 receptor-associated kinase 4 (Homo sapiens) (UniProt Q9NWZ3); test: Inhibition of human IRAK4 at 100 nM
[23] = biological target: Tyrosine-protein kinase Yes (Homo sapiens) (UniProt P07947); test: Inhibition of human YES1 at 100 nM
Chain of Tyrosine-protein kinase Yes (Homo sapiens) (P07947 2-543 limits assumed): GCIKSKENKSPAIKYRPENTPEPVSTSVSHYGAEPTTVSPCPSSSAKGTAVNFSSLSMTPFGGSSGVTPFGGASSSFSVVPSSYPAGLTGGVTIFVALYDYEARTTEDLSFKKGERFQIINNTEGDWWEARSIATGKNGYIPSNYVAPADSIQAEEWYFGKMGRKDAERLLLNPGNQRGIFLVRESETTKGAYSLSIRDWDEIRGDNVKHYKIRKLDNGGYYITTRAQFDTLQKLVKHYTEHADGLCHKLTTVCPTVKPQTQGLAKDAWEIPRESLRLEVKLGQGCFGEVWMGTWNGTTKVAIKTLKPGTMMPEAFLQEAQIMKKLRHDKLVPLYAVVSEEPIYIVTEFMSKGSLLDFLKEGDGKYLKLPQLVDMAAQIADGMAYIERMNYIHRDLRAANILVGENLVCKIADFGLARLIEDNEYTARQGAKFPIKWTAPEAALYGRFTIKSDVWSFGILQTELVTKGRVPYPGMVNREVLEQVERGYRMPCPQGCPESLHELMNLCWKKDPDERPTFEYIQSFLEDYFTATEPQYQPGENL

[24] = biological target: Homeodomain-interacting protein kinase 2 (Homo sapiens) (UniProt Q9H2X6); test: Inhibition of human HIPK2 at 100 nM
[25] = biological target: AMP-activated protein kinase, AMPK (Homo sapiens) (UniProt P54646+O43741+P54619+Q9UGJ0+Q9Y478+Q13131+Q9UGI9); test: Inhibition of human AMPK at 100 nM; assay type: protein-complex assay
[26] = Permeability of the compound by PAMPA

SMILES | inhibition [1] [%] | inhibition [2] [%] | inhibition [3] [%] | inhibition [4] [%] | inhibition [5] [%] | inhibition [6] [%] | inhibition [7] [%] | inhibition [8] [%] | inhibition [9] [%] | inhibition [10] [%] | inhibition [11] [%] | remaining at 40 min [12] [%] | inhibition [13] [%] | inhibition [14] [%] | inhibition [15] [%] | inhibition [16] [%] | inhibition [18] [%] | inhibition [19] [%] | inhibition [20] [%] | inhibition [21] [%] | further results
CN1CCC(c2nc(-c3cccc(S(C)(=O)=O)c3)c(-c3ccnc(Nc4ccc(N5CCNCC5)cc4)n3)s2)CC1 | < 70 | < 70 | < 70 | < 70 | < 70 | < 70 | < 70 | < 70 | < 70 | < 70 | < 70 | 84 | < 70 | < 70 | < 70 | < 70 | < 70 | < 70 | < 70 | < 70 | pIC50 [17]: 9.05; inhibition [22]: < 70%; inhibition [23]: < 70%; inhibition [24]: < 70%; inhibition [25]: < 70%
CN1CCC(c2nc(-c3ccc(F)c(NS(C)(=O)=O)c3)c(-c3ccnc(NCC4CC4)n3)s2)CC1 | < 70 | < 70 | < 70 | < 70 | < 70 | < 70 | < 70 | < 70 | < 70 | < 70 | < 70 | 95 | < 70 | < 70 | < 70 | < 70 | < 70 | < 70 | < 70 | < 70 | Papp [26]: 5.7 ×10⁻⁶ cm/s; inhibition [22]: < 70%; inhibition [23]: < 70%; inhibition [24]: < 70%
